Usually AC50 stands for the concentration at which the activity in the assay is half-maximal.

Molecules are shown by their SMILES.

For one assay, the target named is T1, human PAH with the R408W mutation (Homo sapiens, UniProt P00439, R408W).
T1 construct: expressed in transfected cells
T1 sequence (P00439 1-452 R408W): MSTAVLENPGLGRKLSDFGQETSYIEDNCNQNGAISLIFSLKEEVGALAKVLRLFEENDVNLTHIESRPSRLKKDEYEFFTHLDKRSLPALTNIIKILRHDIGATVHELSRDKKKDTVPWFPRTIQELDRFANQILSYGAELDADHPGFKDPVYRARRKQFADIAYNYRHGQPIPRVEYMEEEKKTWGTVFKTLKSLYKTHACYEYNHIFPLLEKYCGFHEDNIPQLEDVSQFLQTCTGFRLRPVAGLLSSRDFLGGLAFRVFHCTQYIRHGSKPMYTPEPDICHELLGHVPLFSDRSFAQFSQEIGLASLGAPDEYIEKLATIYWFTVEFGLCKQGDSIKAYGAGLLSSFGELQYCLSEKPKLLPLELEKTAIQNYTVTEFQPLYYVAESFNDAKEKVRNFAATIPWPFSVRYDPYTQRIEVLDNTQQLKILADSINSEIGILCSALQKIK
Kind of assay: Cell Based Phenylalanine Flux Assay.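 Further: Ten-point dose curve from 2-fold serial dilutions, run in duplicate at 0.5% DMSO final, tracer step used 20 µM sepiapterin and 800 µM labeled phenylalanine.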 Further details: scale not given here. The conditions noted are these: A375 cells expressing R408W PAH; 24 hrs with compound, then 20 μM sepiapterin and 800 μM 13C9,15N-Phenylalanine for 4 hours; 13C-Tyrosine in media by LC-MS; average where tested multiple times.
Turning to `FC(F)c1cccn2nc([C@H]3c4nc[nH]c4CCN3c3nnc(-c4ccncn4)o3)cc12` (single isomer, unassigned), the concentration at half-maximal activity (AC50) result is listed as “E, E”.

Still in this assay, the particulars now being: A375 cells expressing R408W PAH; 24 hrs with compound, then 20 μM sepiapterin and 800 μM 13C9,15N-Phenylalanine for 4 hours; 13C-Tyrosine in media by LC-MS; average where tested multiple times; read-out: AC50.
In the case of `CC(C)(F)c1nnc(N2CCc3[nH]cnc3[C@H]2c2cc3c(C4CC4)cccn3n2)o1` (single isomer, unassigned), the AC50 was above 5000 nM. As for `O=C(c1nnc(-c2ncccn2)o1)N1CCc2[nH]cnc2C1c1cc2c(C3CC3)cccn2n1` (stereo not shown), the AC50 was above 5000 nM. Take `O=C(c1nnc(-c2ccc(C(F)(F)F)cn2)o1)N1CCc2[nH]cnc2[C@H]1c1cc2ccccn2n1` (single isomer, unassigned): the AC50 fell in the range of 1000 to 5000 nM.

For `Cc1nnc(C(=O)N2CCc3[nH]cnc3C2c2cc3ccc(F)cn3n2)o1` (stereo not shown), the AC50 was in the range of 1000 to 5000 nM.

Take `N#Cc1ncoc1C(=O)N1CCc2[nH]cnc2C1c1nn2ccccc2c1Br` (stereo not shown): the AC50 lay within 1000 to 5000 nM. As for `CN(C)c1nnc(C(=O)N2CCc3[nH]cnc3[C@H]2c2cc3ccccn3n2)o1` (single isomer, unassigned), the AC50 is 1000 to 5000 nM.

Staying with this assay, now noted: A375 cells expressing human R408W PAH; 24 hrs compound incubation; 13C-Tyrosine by LC-MS; average where tested multiple times; read-out: AC50.
With `C[C@@H](O)c1nc(C(F)F)c(C(=O)N2CCc3[nH]cnc3[C@@H]2c2cc3c(Cl)cccn3n2)o1` [Example 703, ((R)-4-(4-chloropyrazolo [1,5-a]pyridin-2-yl)-6,7-dihydro-1H-imidazo[4,5-c]pyridin-5(4H)-yl)(4-(difluoromethyl)-2-((R)-1-hydroxyethyl)oxazol-5-yl)methanone], the half-maximal activity concentration (AC50) was 1000 to 5000 nM.

As for `O=C(c1nnc(-c2ccccn2)o1)N1CCc2[nH]cnc2[C@@H]1c1cc2c(C(F)(F)F)cccn2n1` [Example 827, (R)-(5-(pyridin-2-yl)-1,3,4-oxadiazol-2-yl)(4-(4-(trifluoromethyl)pyrazolo [1,5-a]pyridin-2-yl)-6,7-dihydro-1H-imidazo[4,5-c]pyridin-5(4H)-yl)methanone], the AC50 was above 5000 nM. For `O=C(c1nnc(-c2ccccn2)o1)N1CCc2[nH]cnc2[C@H]1c1cc2c(C(F)F)cccn2n1` [Example 1314, (S)-(4-(4-(difluoromethyl)pyrazolo[1,5-a]pyridin-2-yl)-6,7-dihydro-1H-imidazo [4,5-c]pyridin-5(4H)-yl)(5-(pyridin-2-yl)-1,3,4-oxadiazol-2-yl)methanone], the AC50 was below 500 nM.

For the molecule `CC(C)(O)c1nc(C(F)F)c(C(=O)N2CCc3[nH]cnc3[C@@H]2c2cc3ccc(C(F)(F)F)cn3n2)o1` [Example 1117, (R)-(4-(difluoromethyl)-2-(2-hydroxypropan-2-yl)oxazol-5-yl)(4-(6-(trifluoromethyl)pyrazolo[1,5-a]pyridin-2-yl)-6,7-dihydro-1H-imidazo[4,5-c]pyridin-5(4H)-yl)methanone], the AC50 is above 5000 nM. In the case of `Cn1ccc(-c2nnc(C(=O)N3CCc4[nH]cnc4[C@H]3c3cc4c(F)cccn4n3)o2)n1` [Example 730, (S)-(4-(4-fluoropyrazolo [1,5-a]pyridin-2-yl)-6,7-dihydro-1H-imidazo[4,5-c]pyridin-5(4H)-yl)(5-(1-methyl-1H-pyrazol-3-yl)-1,3,4-oxadiazol-2-yl)methanone], the AC50 was below 500 nM. Take `Cc1nc(C(C)(C)F)oc1C(=O)N1CCc2[nH]cnc2[C@H]1c1cc2cccc(C(F)(F)F)n2n1` [Example 1265, (S)-(2-(2-fluoropropan-2-yl)-4-methyloxazol-5-yl)(4-(7-(trifluoromethyl)pyrazolo [1,5-a]pyridin-2-yl)-6,7-dihydro-1H-imidazo[4,5-c]pyridin-5(4H)-yl)methanone]: the concentration at half-maximal activity (AC50) is below 500 nM. For the molecule `O=C(c1nnc(-c2cnccn2)o1)N1CCc2[nH]cnc2[C@H]1c1cc2cccc(Cl)n2n1` [Example 979, (S)-(4-(7-chloropyrazolo [1,5-a]pyridin-2-yl)-6,7-dihydro-1H-imidazo[4,5-c]pyridin-5(4H)-yl)(5-(pyrazin-2-yl)-1,3,4-oxadiazol-2-yl)methanone], the AC50 was below 500 nM. As to `O=C(c1nnc(-c2cnccn2)o1)N1CCc2[nH]cnc2[C@H]1c1cc2ccccn2n1` [Example 1362, (S)-(5-(pyrazin-2-yl)-1,3,4-oxadiazol-2-yl)(4-(pyrazolo[1,5-a]pyridin-2-yl)-6,7-dihydro-1H-imidazo[4,5-c]pyridin-5(4H)-yl)methanone], the concentration at half-maximal activity (AC50) was 500 to 1000 nM.

Staying with this assay, now noted: A375 cells expressing human R408W PAH; 24 hrs with compound, then sepiapterin and 13C9,15N-Phenylalanine for 4 hours; 13C-Tyrosine by LC-MS; average where tested multiple times; read-out: AC50.
For `Cc1cccn2nc([C@@H]3c4nc[nH]c4CCN3c3nnc(-c4cccnc4F)o3)cc12` [Example 2264, (S)-2-(2-fluoropyridin-3-yl)-5-(4-(4-methylpyrazolo[1,5-a]pyridin-2-yl)-1,4,6,7-tetrahydro-5H-imidazo[4,5-c]pyridin-5-yl)-1,3,4-oxadiazole], the AC50 lay within 500 to 1000 nM. As for `FC(F)(F)c1cccn2nc([C@H]3c4nc[nH]c4CCN3c3ncccn3)cc12` [Example 1693, (R)-5-(pyrimidin-2-yl)-4-(4-(trifluoromethyl)pyrazolo [1,5-a]pyridin-2-yl)-4,5,6,7-tetrahydro-1H-imidazo [4,5-c]pyridine], the AC50 fell in the range of 1000 to 5000 nM.

On to `Cc1nnc(C(=O)N2CCc3[nH]cnc3[C@H]2c2cc3c(C4CC4)cccn3n2)o1` [Example 2494, (S)-(4-(4-cyclopropylpyrazolo [1,5-a]pyridin-2-yl)-1,4,6,7-tetrahydro-5H-imidazo [4,5-c]pyridin-5-yl)(5-methyl-1,3,4-oxadiazol-2-yl)methanone], for which the AC50 lay in the range of 1000 to 5000 nM.

With `Cc1cnn(C)c1-c1nnc(C(=O)N2CCc3[nH]cnc3[C@@H]2c2cc3cccc(F)n3n2)o1` [Example 1529, (R)-(5-(1,4-dimethyl-1H-pyrazol-5-yl)-1,3,4-oxadiazol-2-yl)(4-(7-fluoropyrazolo [1,5-a]pyridin-2-yl)-6,7-dihydro-1H-imidazo[4,5-c]pyridin-5(4H)-yl)methanone], the AC50 is 1000 to 5000 nM. On the same count and under the same terms, the figure for `O=C(c1nnc(-c2ccn(C(F)(F)F)n2)o1)N1CCc2[nH]cnc2[C@@H]1c1cc2c(F)cccn2n1` [Example 1483, (R)-(4-(4-fluoropyrazolo [1,5-a]pyridin-2-yl)-6,7-dihydro-1H-imidazo[4,5-c]pyridin-5(4H)-yl)(5-(1-(trifluoromethyl)-1H-pyrazol-3-yl)-1,3,4-oxadiazol-2-yl)methanone] is 1000 to 5000 nM; for `CC(F)(F)c1nnc(N2CCc3[nH]cnc3[C@H]2c2cc3c(Cl)cccn3n2)o1` [Example 2233, (S)-2-(4-(4-chloropyrazolo [1,5-a]pyridin-2-yl)-1,4,6,7-tetrahydro-5H-imidazo [4,5-c]pyridin-5-yl)-5-(1,1-difluoroethyl)-1,3,4-oxadiazole] it is below 500 nM; for `Cc1cccn2nc([C@@H]3c4nc[nH]c4CCN3C(=O)c3cnc(C(C)(C)C)o3)cc12` [Example 1920, (S)-(2-(tert-butyl)oxazol-5-yl)(4-(4-methylpyrazolo[1,5-a]pyridin-2-yl)-1,4,6,7-tetrahydro-5H-imidazo[4,5-c]pyridin-5-yl)methanone] it is below 500 nM. The same measure, in the same setting: the figure for `FC(F)Oc1cccn2nc([C@H]3c4nc[nH]c4CCN3c3nnc(C(F)(F)F)o3)cc12` [Example 2154, (R)-2-(4-(4-(difluoromethoxy)pyrazolo[1,5-a]pyridin-2-yl)-1,4,6,7-tetrahydro-5H-imidazo[4,5-c]pyridin-5-yl)-5-(trifluoromethyl)-1,3,4-oxadiazole] is above 5000 nM; for `Cc1c(-c2nnc(C(=O)N3CCc4[nH]cnc4[C@H]3c3cc4c(C(C)C)cccn4n3)o2)cnn1C` [Example 1948, (S)-(5-(1,5-dimethyl-1H-pyrazol-4-yl)-1,3,4-oxadiazol-2-yl)(4-(4-isopropylpyrazolo [1,5-a]pyridin-2-yl)-1,4,6,7-tetrahydro-5H-imidazo[4,5-c]pyridin-5-yl)methanone] it is below 500 nM. The same measure, in the same setting: the figure for `O=C(c1nnc(-c2cnn(C(F)(F)F)c2)o1)N1CCc2[nH]cnc2[C@H]1c1cc2cccc(C(F)F)n2n1` [Example 1502, (S)-(4-(7-(difluoromethyl)pyrazolo[1,5-a]pyridin-2-yl)-6,7-dihydro-1H-imidazo [4,5-c]pyridin-5(4H)-yl)(5-(1-(trifluoromethyl)-1H-pyrazol-4-yl)-1,3,4-oxadiazol-2-yl)methanone] is 500 to 1000 nM. As to `Cc1cccn2nc([C@H]3c4nc[nH]c4CCN3C(=O)c3cnc(-c4cnn(C)c4C)o3)cc12` [Example 1963, (R)-(2-(1,5-dimethyl-1H-pyrazol-4-yl)oxazol-5-yl)(4-(4-methylpyrazolo[1,5-a]pyridin-2-yl)-1,4,6,7-tetrahydro-5H-imidazo[4,5-c]pyridin-5-yl)methanone], the AC50 is above 5000 nM.

As to `CCc1cccn2nc([C@@H]3c4nc[nH]c4CCN3C(=O)c3nnc(-c4ccccn4)o3)cc12` [Example 1895, (S)-(4-(4-ethylpyrazolo[1,5-a]pyridin-2-yl)-1,4,6,7-tetrahydro-5H-imidazo[4,5-c]pyridin-5-yl)(5-(pyridin-2-yl)-1,3,4-oxadiazol-2-yl) methanone], the AC50 was below 500 nM.

`Fc1ccc(-c2nnc(N3CCc4[nH]cnc4[C@@H]3c3cc4c(C(F)F)cccn4n3)o2)cc1` [Example 1912, (R)-2-(4-(4-(difluoromethyl)pyrazolo[1,5-a]pyridin-2-yl)-1,4,6,7-tetrahydro-5H-imidazo[4,5-c]pyridin-5-yl)-5-(4-fluorophenyl)-1,3,4-oxadiazole]: the AC50 was above 5000 nM.

The record behind these values is patent publication US12673961B2 (Agios Pharmaceuticals, Inc., priority 2022, dated 2026).
